From US20250222143A1, “TARGETED RADIOTHERANOSTICS BASED ON POLYAZAMACROCYCLIC, MIXED-DONOR SCAFFOLDS LINKED TO A TARGETING VECTOR” (The Research Foundation for the State University of New York, priority 2021, published 2025)
“And” between values parts separate entries of the source, which are not always exact repeats. Equal entries are not always repeated. Where two headings read alike, the source gives them in different places.

How the values were obtained:
human serum albumin [1] = biological target: T1, human serum albumin (Homo sapiens, UniProt P02768); assay: Binding to human serum albumin (ultrafiltration, Lu in filtrate by ICP-OES)
T1 sequence (P02768 25-609): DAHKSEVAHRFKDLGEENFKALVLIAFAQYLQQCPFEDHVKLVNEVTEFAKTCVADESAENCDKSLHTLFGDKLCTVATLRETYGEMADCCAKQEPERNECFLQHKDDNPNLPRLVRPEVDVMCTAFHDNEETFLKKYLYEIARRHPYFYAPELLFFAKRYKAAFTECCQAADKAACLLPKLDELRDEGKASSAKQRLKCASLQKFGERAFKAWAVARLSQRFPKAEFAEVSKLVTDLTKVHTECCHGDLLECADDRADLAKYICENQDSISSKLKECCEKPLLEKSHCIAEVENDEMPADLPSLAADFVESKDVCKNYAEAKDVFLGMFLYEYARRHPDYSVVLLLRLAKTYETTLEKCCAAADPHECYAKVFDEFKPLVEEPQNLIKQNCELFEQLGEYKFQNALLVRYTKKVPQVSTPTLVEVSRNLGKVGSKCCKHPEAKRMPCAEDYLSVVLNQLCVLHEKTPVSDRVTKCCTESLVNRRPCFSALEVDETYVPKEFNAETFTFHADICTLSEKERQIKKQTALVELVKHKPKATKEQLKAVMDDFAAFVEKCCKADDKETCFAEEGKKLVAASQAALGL
Experimental: (§1) To measure HSA binding of the complexes, a 0.1 mM solution (determined by ICP-OES) of the corresponding ^natLu complex in 4.5% w/v HSA was prepared and pipetted into an Amicon Ultra-0.5 Centrifugal Filter Unit (50 KDa cutoff, Millipore, UFC500396). The mixture was incubated at 37° C. for 15 min and subsequently centrifuged at 12000 rpm for 10 min. Binding is determined by measurement of Lu content in the filtrate by ICP-OES and compared to non-specific binding to the filter in absence of HSA.
(§2) To this end, each ligand was incubated at 37° C. for 15 minutes in PBS with or without 4.5% human serum albumin to simulate in vivo protein concentration. Each mixture was filtered through a 50 KDa MW cutoff filter and the ^natLu content of the filtrate was measured by ICP-OES. ^natLu-mpaten was used as a chelator-only control with no targeting functionality and thus no expected interaction with human serum albumin.

human serum albumin [2] = biological target: T1, human serum albumin; conditions: 15 min, 0.1 mM
Experimental: as §1, §2

PSMA [3] = biological target: T2, PSMA (Homo sapiens, UniProt Q04609); conditions: value taken from literature; cited from earlier work
T2 sequence (Q04609 whole entry): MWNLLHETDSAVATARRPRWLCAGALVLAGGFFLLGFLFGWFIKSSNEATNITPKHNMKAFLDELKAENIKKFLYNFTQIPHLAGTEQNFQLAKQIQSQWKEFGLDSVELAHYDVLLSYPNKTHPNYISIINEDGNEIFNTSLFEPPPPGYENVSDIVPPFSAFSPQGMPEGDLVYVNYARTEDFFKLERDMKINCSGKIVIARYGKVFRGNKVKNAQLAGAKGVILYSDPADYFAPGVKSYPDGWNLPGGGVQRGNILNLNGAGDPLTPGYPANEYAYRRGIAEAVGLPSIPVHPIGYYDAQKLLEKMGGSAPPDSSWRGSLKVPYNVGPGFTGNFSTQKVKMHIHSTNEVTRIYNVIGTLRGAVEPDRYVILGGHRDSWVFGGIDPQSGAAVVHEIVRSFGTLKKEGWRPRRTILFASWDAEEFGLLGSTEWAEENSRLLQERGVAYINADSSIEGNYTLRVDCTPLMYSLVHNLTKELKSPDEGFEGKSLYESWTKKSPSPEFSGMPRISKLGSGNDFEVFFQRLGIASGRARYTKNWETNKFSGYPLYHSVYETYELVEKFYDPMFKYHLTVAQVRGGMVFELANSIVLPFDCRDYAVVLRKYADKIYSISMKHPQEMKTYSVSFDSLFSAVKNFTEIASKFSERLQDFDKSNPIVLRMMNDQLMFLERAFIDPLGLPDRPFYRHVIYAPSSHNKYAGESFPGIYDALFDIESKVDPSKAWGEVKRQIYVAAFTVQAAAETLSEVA

[4] = Formulation stability of [Sc-^18F(picaga-DUPA)]^- by radioHPLC; type: physicochemical
Experimental: The stability of [Sc-^18F(picaga-DUPA)]^− in both DPBS and saline was evaluated for up to 4 h. It was determined that [Sc-^18F(picaga-DUPA)]^− was stable in both DPBS and saline for at least 4 h (FIG. 7A, B).
The [^18F]KF stock solution was prepared as previously described (39.4 mCi, 693 μL, pH 2.5). The Sc-^18F precursor was formed via direct addition of 200 μL 0.25 M ammonium acetate (pH 4.1) buffer and 20 nmol ScCl3 stock (0.25 eq.) to the [^18F]KF stock. Following incubation at room temperature for 10 minutes, 79.8 nmol picaga-DUPA (1 eq.) was added to 400 μL of the Sc-^18F precursor stock solution (13.11 mCi), then incubated at 100° C. for 25 minutes. The major [^18F]Sc—F(picaga)-DUPA species was separated the minor isomer and Sc-^18F via analytical radioHPLC (Method C). (FIG. 34) Purified [^18F]Sc—F(picaga)-DUPA complex was concentrated to dryness under reduced pressure and formulated for injection in DPBS (2.11 mCi, 550 μL). Dose formulation stability was analyzed at 0 and 4 hours (FIG. 34A), before and after in vivo experiments, via radioHPLC (Method C). Apparent molar activity: 164 mCi/μmol.

[5] = cited from earlier work
[6] = Spectrophotometric pH-dependent titration (complex formation pKa, speciation); type: physicochemical
Source text: As was previously shown, radiolabeling of Lu-177 with L1 is not feasible at room temperature, in part due to the comparatively high formation pKa of the [Lu(L1)] coordination complex (pH 2.4) (Vaughn, B. A. et al. 2021).

PSMA + and PSMA − tumors = conditions: previous work, 2 h post-injection, n = 4, cited from earlier work
[7] = Dose formulation stability of ^177Lu-radiolabeled ligands by radio-HPLC; type: physicochemical; conditions: DMSO:NH4OAc:phosphate buffered saline, room temperature
Experimental: The stability for ^177Lu-radiolabeled ligands was evaluated by radio-HPLC for radiolytic degradation and decomplexation at relevant time points concentrations for dose preparation, storage, and administration. (picaga)-HSA was radiolabeled as previously described at a specific activity of 0.08 mCi/nmol (3.0 MBq/nmol) and diluted in PBS. A 0.1 mL aliquot was removed, stored at room temperature, and tested for stability by radio-HPLC. The activity concentration at t=0 was 0.12 mCi in 0.1 mL.
Under the same conditions, ^177Lu-PSMA-617 was determined to be 80% intact.

PSMA+PC3 PIP cells = assay: Cell uptake and internalization; type: cell-based
Experimental: The binding and internalization of ^177Lu-(picaga)-HSA and ^177Lu-PSMA-617 was evaluated in PSMA+PC3 PIP cells. In brief, 5×10^5 PC3 PiP cells are suspended, washed and aliquoted. The internalized fraction is determined using ^177Lu-ligand in PC3 PiP cells, with ligands radiolabeled at a specific activity of 0.08 mCi/nmol (3.0 MBq/nmol) and diluted in PBS. […] Subsequently, cell samples were lysed by addition of NaOH (1 M, 1 mL) to release cellular contents and internalized ^177Lu-(picaga)-HSA. Radioactive counts are quantitated separately using a gamma well counter, with each incubation conducted in triplicate.

[8] = Whole body activity clearance (dose calibrator); set-up: species or system mice; conditions: mouse, in vivo
Experimental: Whole body activity was measured by placing each mouse into a dose-calibrator. % Remaining activity was given by =[At/At=0] where At is the decay-corrected whole body activity at time t and At-0 is the total activity measured by dose calibrator p.i. The data were fit to a one-phase decay curve in GraphPad Prism and the biological decay constant K was calculated to be K=0.005638 h^−1 for ^177Lu-(picaga)-HSA and K=0.1415 h^−1 for ^177Lu-PSMA-617.
To approximate clearance of the ^177Lu-constructs, therapy cohort treated with ^177Lu-(picaga)-HSA and ^177Lu-PSMA-617 were monitored for residual whole-body activity remaining in the mouse. The whole-body activity remaining was plotted and the biological half-life in PSMA+tumor-bearing mice was determined using nonlinear regression in Graph Pad Prism (FIG. 16; Table 5). […] This is attributable to both the longer blood half-life because of the HSA-binding functionality and to the enhanced tumor uptake afforded by the longer blood circulation.

PSMA+PC-3 PIP tumors [9] = assay: Single dose radiotherapy study in PC-3 PIP tumor-bearing mice; conditions: single dose 3.7 MBq
Experimental: Twelve-week-old male mice were inoculated subcutaneously on the right shoulder with PSMA+PC-3 PIP cells (0.7×10^6/mouse in 1:2 DPBS pH 7.4: Matrigel). Tumors grew nine days before treatment with an approximate volume of 100 mm^3 at day 0. Three groups of mice (n=6) (cohort A, B, and C) with statistically similar body weights and tumor volumes were injected at day 0 of the therapy study. Group A received saline only. […] Following administration of radioligand or vehicle, the mice were monitored by measuring the tumor size and body weight over 60 days. Mice were euthanized when the predefined end point criteria were reached, or when the study was terminated at day 60. The relative body weight (RBW) was defined as [BWx/BW0], where BWx is the body weight in grams at a given day x and BW0 is the body weight in grams on day 0. The tumor dimension was determined by measuring the longest tumor axis (L) and its perpendicular axis (W) with a digital caliper. The tumor volume (V) was calculated according to the equation [V=0.5×(LW^2)].

PSMA+PC-3 PIP tumors [10] = assay: Pilot therapy study with ^177Lu-picaga-DUPA; conditions: 3.3 MBq, n = 4, 14 days
Experimental: Twelve-week-old male mice were inoculated subcutaneously on the right shoulder with PSMA+PC-3 PIP cells (0.7×10^5/mouse in 1:1 DPBS pH 7.4: Matrigel). Tumors grew nine days before treatment with an approximate volume of 100 mm^3 at day 0. One group of mice (n=4) (cohort D) with statistically similar body weights and tumor volumes were injected at day 0 of the therapy study. Group D received 3.3 MBq of the radioligand via tail vein injection (^177Lu-picaga-DUPA). Following administration of radioligand, the mice were monitored by measuring the tumor size and body weight over 14 days. Mice were euthanized when the predefined end point criteria were reached, or when the study was terminated at day 14. The relative body weight (RBW) was defined as [BWx/BW0], where BWx is the body weight in grams at a given day x and BW0 is the body weight in grams on day 0. The tumor dimension was determined by measuring the longest tumor axis (L) and its perpendicular axis (W) with a digital caliper. The tumor volume (V) was calculated according to the equation [V=0.5×(LW^2)]. The relative tumor volume (RTV) was defined as [TVx/TV0], where TVz is the tumor volume in mm^3 at a given day x, and TV0 is the tumor volume in mm^3 at day 0.

PSMA [11] = biological target: T2, PSMA; assay: Displacement assay against ^99mTc(CO)3-MIP-1427 for binding affinity to PSMA; conditions: displacement of ^99mTc-MIP-1427, DCFPyL as internal reference; read-out: affinity (Ki) to the PSMA target
Experimental: Stock solutions of Lu-(picaga)-HSA in (DMSO: H2O, 1:5) were prepared and concentrations were determined by ICP-OES in accordance with previously published method.
The Ki was determined by nonlinear regression analysis using GraphPad Prism software.
Prior to the assessment of the ^177Lu-labeled compounds, binding affinity to the biological target PSMA was evaluated.

SMILES: O=C([O-])CN1CCN(CC(=O)[O-])CCN(Cc2cccc(C(=O)[O-])n2)CC1.[Lu+3] [Lu-mpaten]
- difference in compound in the filtrate with or without HSA (human serum albumin [1]; 4.5% HSA in PBS vs PBS, chelator-only control): no significant difference

SMILES: O=C(O)CC[C@H](NC(=O)N[C@@H](CCCCNC(=O)[C@H](Cc1ccc2ccccc2c1)NC(=O)[C@H]1CC[C@H](CNC(=O)CN2CCN(CC(=O)O)CCN(CC(=O)O)CCN(CC(=O)O)CC2)CC1)C(=O)O)C(=O)O [PSMA-617]
- binding to HSA compared to PBS (human serum albumin [2]): 55±1.2%
- Ki (PSMA [3]): 6.9 ± 1.3 nM

SMILES: O=C([O-])CN1CCN(Cc2cccc(C(=O)[O-])n2)CCN(C(CCC(=O)NCCCCCNC(=O)CCC(NC(=O)NC(CCC(=O)O)C(=O)O)C(=O)O)C(=O)[O-])CC1.[18F-].[Sc+3] (stereo not drawn) [Sc-^18F(picaga)-DUPA]
- stability in DPBS ([4]; DPBS, evaluated for up to 4 h): at least 4 h
- radioHPLC after purification and storage in PBS for 4 hours [4]: no detectable decomposition even after 4 hours
- radioHPLC after purification and storage in PBS for 4 hours ([4]; listed as [^18F]Sc—F(picaga)-DUPA): No degradation or defluorination is observed
- stability in saline ([4]; saline, evaluated for up to 4 h): at least 4 h

SMILES: O=C([O-])CN1CCNCCN(CC(=O)[O-])CC1.[Al+3].[OH-] [[(Al(NO2A)(OH)], reference compound]
- pH at which hydroxide complex can form ([5]; literature): < 5

SMILES: O=C([O-])CN1CCN(CC(=O)[O-])CCN(Cc2cccc(C(=O)[O-])n2)CC1.[Lu+3] [[Lu(L1)]]
- complex formation pKa (pH of first complex species) ([5]; previously shown (Vaughn, B. A. et al. 2021)): 2.4

SMILES: O=C([O-])CN1CCN(CC(=O)[O-])CCN(Cc2cccc(P(=O)([O-])[O-])n2)CC1.[Lu+3] [[Lu(L2)]]
- complex formation pKa (pH of first complex species) [6]: 0.9

SMILES: O=C([O-])CN1CCN(CC(=O)[O-])CCN(Cc2cccc(C(=O)[O-])n2)CC1.[OH-].[Sc+3] [[Sc(mpatcn)(OH)]^−]
- pKa of hydroxide complex ([5]; deprotonation of Sc-bound inner sphere water, literature): 9.1

SMILES: O=C([O-])CN1CCN(Cc2cccc(C(=O)[O-])n2)CCN(C(CCC(=O)NCCCCCNC(=O)CCC(NC(=O)NC(CCC(=O)O)C(=O)O)C(=O)O)C(=O)[O-])CC1.[47Sc+3] (stereo not drawn) [^47Sc(picaga)-DUPA]
- Blood 2 h (PSMA + and PSMA − tumors; Blood): 0.19 ± 0.14 % ID/g
- Bone 2 h (PSMA + and PSMA − tumors; Bone): 0.12 ± 0.06 % ID/g
- Heart 2 h (PSMA + and PSMA − tumors; Heart): 0.11 ± 0.03 % ID/g
- Kidney 2 h (PSMA + and PSMA − tumors; Kidney): 7.13 ± 3.73 % ID/g
- Liver 2 h (PSMA + and PSMA − tumors; Liver): 1.22 ± 1.88 % ID/g
- Muscle 2 h (PSMA + and PSMA − tumors; Muscle): 0.08 ± 0.03 % ID/g
- PSMA + Tumor 2 h (PSMA + and PSMA − tumors; PSMA + Tumor): 12.74 ± 2.87 % ID/g
- PSMA − Tumor 2 h (PSMA + and PSMA − tumors; PSMA − Tumor): 0.77 ± 1.11 % ID/g
- Sm. Int. 2 h (PSMA + and PSMA − tumors; Sm. Int.): 0.18 ± 0.07 % ID/g
- Spleen 2 h (PSMA + and PSMA − tumors; Spleen): 0.24 ± 0.10 % ID/g

SMILES: O=C([O-])CN1CCN(CC(=O)[O-])CCN(CC(=O)NCC2CCC(C(=O)N[C@@H](Cc3ccc4ccccc4c3)C(=O)NCCCC[C@H](NC(=O)N[C@@H](CCC(=O)O)C(=O)O)C(=O)O)CC2)CCN(CC(=O)[O-])CC1.[177Lu+3] (stereo partly drawn) [^177Lu-PSMA-617, reference compound]
- complex stability in dose formulation, 4 h ([7]; 4 h): >99%
- complex stability in dose formulation, 24 h ([7]; 24 h): >99%
- complex stability in dose formulation, 48 h ([7]; 48 h): >99%
- complex stability in dose formulation, 14 d (% intact) ([7]; 14 d): 80%
- % Internalization 2 h (PSMA+PC3 PIP cells; 2 h): 33.53±1.40% and 33.53%
- % Uptake 2 h (PSMA+PC3 PIP cells; 2 h): 6.36±0.43% and 6.36%
- % Internalization 4 h (PSMA+PC3 PIP cells; 4 h): 36.11±2.93% and 36.11%
- % Uptake 4 h (PSMA+PC3 PIP cells; 4 h): 6.15±0.21% and 6.15%
- % Internalization 24 h (PSMA+PC3 PIP cells; 24 h): 50.93±2.14% and 50.93%
- % Uptake 24 h (PSMA+PC3 PIP cells; 24 h): 9.60±0.11% and 9.60%
- % Uptake Blocking (PSMA+PC3 PIP cells; blocking with unlabeled glu-urea-glu PSMA targeting molecule): 0.45±0.03% and 0.45%
- biological decay constant K [8]: 0.1415 h^−1
- biological half-life t1/2 [8]: 4.9 h
- % activity remaining in whole body p.i., 0 h ([8]; 0 h): 100.00 ± 0.00%
- % activity remaining in whole body p.i., 24 h ([8]; 24 h): 3.35 ± 0.16%
- relative body weight during therapy study (PSMA+PC-3 PIP tumors [9]): dropped during the study
- tumor growth / survival compared to control cohort (PSMA+PC-3 PIP tumors [9]; PC-3 PIP tumor-bearing mice): marginally enhanced survival and delayed tumor growth
- median survival (PSMA+PC-3 PIP tumors [9]; PC-3 PIP tumor-bearing mice, study to day 60): 21 days

SMILES: O=C([O-])CN1CCN(Cc2cccc(C(=O)[O-])n2)CCN(C(CCC(=O)NCCCCCNC(=O)CCC(NC(=O)NC(CCC(=O)O)C(=O)O)C(=O)O)C(=O)[O-])CC1.[177Lu+3] (stereo not drawn) [^177Lu-picaga-DUPA]
- delay in tumor growth (pilot data) (PSMA+PC-3 PIP tumors [10]): delay in tumor growth for ^177Lu-PSMA-617 was similar to the delay observed in our pilot data

SMILES: O=C([O-])CN1CCN(Cc2cccc(C(=O)[O-])n2)CCN(C(CCC(=O)NC(CCCCNC(=O)CCCc2ccc(I)cc2)C(=O)NCC2CCC(C(=O)NC(Cc3ccc4ccccc4c3)C(=O)NCCCCC(NC(=O)NC(CCC(=O)O)C(=O)O)C(=O)O)CC2)C(=O)[O-])CC1.[Lu+3] (stereo not drawn) [^natLu-(picaga)-HSA]
- Ki (PSMA [11]): 1.4 ± 0.6 nM
- binding to HSA compared to PBS (human serum albumin [1]; 0.1 mM ^natLu complex, 4.5% HSA in PBS, 37° C., 15 min, 50 KDa filter): 80±3.3%
